Source: patent US9409966B2, “Glucagon-like peptide-1 derivatives and their pharmaceutical use” (priority 2007, dated 2016)
pEC50: −log10 of the molar value. *1 amine or outer side, *2 acyl side, *3 side chain or, on linkers, in order; H or OH if unused. Where a SMILES comes first, the peptide text is derived from it. Side-chain parts run from the residue outwards. [ ]: non-standard residue; d: D form. The star is where a group is joined. C18 diacid = O=C(O)CCCCCCCCCCCCCCCCC(=O)*; γGlu = O=C(O)[C@H](CCC(=O)[*:2])N[*:1]; AEEA = NCCOCCOCC(=O)O; Aib = CC(C)(N)C(=O)O

Key:
[1] = molecular target: human serum albumin (HSA) (Homo sapiens, UniProt P02768); experiment: Albumin binding affinity, competition scintillation proximity assay (SPA)
human serum albumin (HSA), sequence (P02768 25-609): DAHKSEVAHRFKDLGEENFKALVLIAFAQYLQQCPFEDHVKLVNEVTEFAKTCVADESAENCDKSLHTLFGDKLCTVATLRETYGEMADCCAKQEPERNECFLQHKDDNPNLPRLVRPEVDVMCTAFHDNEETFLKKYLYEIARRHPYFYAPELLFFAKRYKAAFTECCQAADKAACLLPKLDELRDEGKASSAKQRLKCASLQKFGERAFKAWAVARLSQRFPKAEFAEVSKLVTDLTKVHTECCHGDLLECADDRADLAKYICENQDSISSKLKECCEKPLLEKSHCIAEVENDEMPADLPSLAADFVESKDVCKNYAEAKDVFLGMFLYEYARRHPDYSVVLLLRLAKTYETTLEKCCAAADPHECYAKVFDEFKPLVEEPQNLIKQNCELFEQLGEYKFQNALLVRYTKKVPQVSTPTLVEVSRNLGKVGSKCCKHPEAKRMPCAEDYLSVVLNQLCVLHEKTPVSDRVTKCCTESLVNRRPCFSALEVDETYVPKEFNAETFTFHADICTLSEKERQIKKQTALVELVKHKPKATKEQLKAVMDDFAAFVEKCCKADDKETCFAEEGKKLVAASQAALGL
Description: Streptavidin-SPA beads (GE Healthcare RPNQ0009) were incubated with biotinylated HSA for 5 hours. The beads were washed with buffer to remove unbound HSA. […] After 20 hours of gentle rocking at room temperature the plates were centrifuged and counted on a TopCounter.

human GLP-1 receptor = molecular target: T1, human GLP-1 receptor (Homo sapiens, UniProt P43220); experiment: Stimulation of cAMP formation in a cell line expressing the cloned human GLP-1 receptor; type: biochemical; details: cAMP production, purified plasma membranes from BHK467-12A (tk-ts13), AlphaScreen cAMP Assay Kit; read-out: Potency [EC50/nM]
T1 construct: expressed in transfected cells; host or cells: BHK467-12A (tk-ts13) baby hamster kidney cells; purified plasma membranes
T1 sequence (P43220 24-463): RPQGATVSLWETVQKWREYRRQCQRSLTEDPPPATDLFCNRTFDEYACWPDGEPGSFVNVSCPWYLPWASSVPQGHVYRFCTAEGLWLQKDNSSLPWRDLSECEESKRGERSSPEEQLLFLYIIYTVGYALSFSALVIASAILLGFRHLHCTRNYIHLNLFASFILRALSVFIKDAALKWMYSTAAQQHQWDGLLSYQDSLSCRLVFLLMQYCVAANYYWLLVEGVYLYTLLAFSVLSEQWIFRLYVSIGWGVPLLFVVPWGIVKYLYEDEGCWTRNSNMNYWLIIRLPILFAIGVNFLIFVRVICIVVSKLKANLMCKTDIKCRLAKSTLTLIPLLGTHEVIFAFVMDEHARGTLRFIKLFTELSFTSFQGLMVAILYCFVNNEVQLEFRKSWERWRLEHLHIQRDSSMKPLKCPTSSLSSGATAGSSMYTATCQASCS
Description: A stable transfected cell line has been prepared at NN A/S, Denmark, and a high expressing clone was selected for screening. The cells were grown at 5% CO2 in DMEM, 5% FCS, 1% Pen/Strep (Penicillin/Streptomycin) and 0.5 mg/ml of the selection marker G418.
Cells at approximate 80% confluence were washed 2× with PBS (Phosphate Buffered Saline) and harvested with Versene (aqueous solution of the tetrasodium salt of ethylenediaminetetraacetic acid), centrifuged 5 min at 1000 rpm and the supernatant removed. The additional steps were all made on ice. […] Suspension in Buffer 2, homogenization and centrifugation was repeated once and the membranes were resuspended in Buffer 2 and ready for further analysis or stored at −80° C.
The functional receptor assay was carried out by measuring the peptide induced cAMP production by The AlphaScreen Technology. […] The capture of cAMP is achieved by using a specific antibody conjugated to acceptor beads. Formed cAMP was counted and measured at a AlphaFusion Microplate Analyzer. The EC50 values were calculated using the Graph-Pad Prisme software (version 5).

pEC50 [1]: 5.82 to 6.10 | EC50 (human GLP-1 receptor): 0.74 nM
SMILES: CC[C@H](C)[C@H](NC(=O)[C@H](Cc1ccccc1)NC(=O)[C@H](CCC(=O)O)NC(=O)[C@H](CCCNC(=N)N)NC(=O)[C@@H](NC(=O)[C@H](C)NC(=O)[C@H](CCC(N)=O)NC(=O)[C@H](CCC(=O)O)NC(=O)[C@H](CCC(=O)O)NC(=O)[C@H](CCCCN)NC(=O)[C@H](Cc1ccc(O)cc1)NC(=O)[C@H](CO)NC(=O)[C@H](CO)NC(=O)[C@@H](NC(=O)[C@H](CC(=O)O)NC(=O)[C@H](CO)NC(=O)[C@@H](NC(=O)[C@H](Cc1ccccc1)NC(=O)[C@@H](NC(=O)CNC(=O)[C@H](CCC(=O)O)NC(=O)C(C)(C)NC(=O)[C@@H](N)Cc1c[nH]cn1)[C@@H](C)O)[C@@H](C)O)C(C)C)C(C)C)C(=O)N[C@@H](C)C(=O)N[C@@H](CCCCNC(=O)COCCOCCNC(=O)COCCOCCNC(=O)CC[C@H](NC(=O)CCCCCCCCCCCCCCCCC(=O)O)C(=O)O)C(=O)N[C@@H](CC(C)C)C(=O)N[C@H](C(=O)N[C@@H](CCCNC(=N)N)C(=O)N[C@@H](CCCNC(=N)N)C(=O)N[C@@H](CCCNC(=N)N)C(=O)N[C@@H](CCCNC(=N)N)C(=O)N[C@@H](CCCNC(=N)N)C(=O)N[C@@H](CCCNC(=N)N)C(=O)N[C@@H](CCCNC(=N)N)C(=O)N[C@@H](CCCNC(=N)N)C(=O)O)C(C)C [Example 35] (H-H[Aib]EGTFTSDVSSYKEEQAVREFIAK([AEEA-AEEA-γGlu-C18 diacid])LVRRRRRRRR-OH)
